According to US11485701B2, “Insect repellent compounds and compositions, and methods thereof” (Iowa State University Research Foundation, Inc., priority 2016, dated 2022):

Columns and labels:
Type in all cases: in vivo
[1] = tested on: female Aedes aegypti (Orlando strain, 1952); experiment: Minimum effective dosage testing, human skin (treated cloth patch)
Experimental: The test mosquitoes were female Aedes aegypti (Orlando strain, 1952) from the colony maintained at United States Department of Agriculture-Agricultural Research Service-Center for Medical, Agricultural and Veterinary Entomology (USDA-ARS-CMAVE) in Gainesville, Fla. Pupae were obtained from the colony and newly emerged mosquitoes were maintained on 10% sugar water and kept in laboratory cages at an ambient temperature of 28±1° C. and RH of 35-60%. Host seeking behavior was pre-selected in nulliparous female mosquitoes aged 6-10 days, indicated by flight upwind towards a potential host, from stock cages using a hand-draw box and trapped in a collection trap.
After 500 (±10%) females were collected in the trap, they were transferred to a test cage (approximately 59,000 cm^3 with dimensions 45×37.5×35 cm) and allowed to acclimatize for 17.5 (±2.5) min before testing was initiated. Just prior to the experiment, the pieces of treated cloth are removed from the vials and stapled onto card stock tabs (5×3 cm). Each piece of the cards and the assembly were hung on a drying rack using masking tape for 3-5 min. Participants in the study used latex gloves to pull a nylon stocking over their arm. A Velcro™-sealed vinyl sleeve was then placed over the forearm. […] The purpose of the nylon stocking was to produce a barrier between the dried cloth and the skin, thereby avoiding direct contact of chemical to skin. The dried cloth assembly was affixed over the opening in the sleeve and held in place with masking tape. Participants then inserted their arm with the sleeve and patch into a screened cage that contained female Ae. Aegypti mosquitoes. Tests were conducted on each control or treated patch for 1 min. A control patch (acetone solvent only, then dried) was tested prior to the start of experiments and evaluation of the same untreated control patch after every 10 tests. If 5 landings were not received on the control patch in 30 s, then tests were discontinued for 60 min. At the conclusion of testing the control patch was tested again. If five landings were not received within 30 s, the data for the replicate was discarded. When testing a patch treated with a candidate repellent, if approximately 1% or 5 mosquito bites were received during this one minute test, this compound was considered to have failed, i.e., was not repellent at that concentration. If a treated cloth patch received 0-4 bites within a minute, then it was considered as passed, i.e., repellent at that concentration of the test compound. The median concentration patch was tested in the first round and treated patches were then tested successively at higher or lower concentrations depending upon whether the previous patch failed or passed, respectively.
The time interval between each tested patch was <90 seconds until 10 successive tests had been conducted. If appreciable, mortality had occurred during testing, the number of knocked down mosquitoes are estimated and additional female mosquitoes are added to the cage to keep the available mosquitoes at approximately 500. The estimate of the MED was the lowest concentration that passed for each candidate. Observed MED values for each candidate compound were averaged across participants and reported as a mean MED±standard error.

[2] = tested on: Northern house mosquitoes (Culex pipiens); experiment: Short-term spatial repellency, static air repellency chamber; settings: 1 mL of 0.5% solution in acetone; for pest or weed control at 0.5 %: Culex pipiens, filter paper, air-dried 15 min
Experimental: (§1) Northern house mosquitoes (Culex pipiens), a primary carrier of West Nile virus in eastern North America, were obtained from an established colony in the Medical Entomology Laboratory in the Department of Entomology at Iowa State University of Science and Technology, Ames Iowa. Mosquito rearing was performed by established protocols that are maintained by the Medical Entomology Laboratory. Repellency bioassays were performed with adult female mosquitoes that emerged 5-7 days previously. […] Mosquitoes, prior to testing, were held at 27° C., 80% relative humidity, and on a 16:8 hr light:dark photoperiod.
Repellency bioassays were performed using a static air repellency chamber, which has been described in various publications by the Pesticide Toxicology Laboratory at Iowa State University of Science and Technology, Ames, Iowa Briefly, a 9-cm×60-cm glass tube was used to monitor the distribution of mosquitoes at 15 min, 30 min, 60 min, 90 min, 120 min, and 150 min after introducing mosquitoes into the static air repellency chamber. […] One end of the spatial chamber contained a treated filter paper, whereas the other (untreated) end of the spatial chamber was not treated with compound. Controls contained filter papers treated with acetone, the solvent used to make the 0.5% solutions. Each end of the repellency chamber was secured with a 100-mm Petri dish using celluloid tape. After securing the petri dishes with corresponding treated or untreated filter papers to the spatial chamber, mosquitoes were anesthetized with carbon dioxide, and approximately 20 female mosquitoes were placed into each repellency chamber for one replicate. The opening of the spatial repellency chamber was secured with celluloid tape to prevent their escape. Chambers were oriented in opposite directions from the previous replicate to account for any directional effect. Four replicates were performed for data analysis for both the control and treatment groups.
(§2) Data for spatial repellency, the percentage repellency, is reported at each of the respective time points in the figures and tables mentioned below. The percentage spatial repellency is the examination of the distribution of mosquitoes and is calculated using the following equation: […]

[3] = tested on: Northern house mosquitoes (Culex pipiens); experiment: Long-term spatial repellency, static air repellency chamber, filter papers air-dried 5 hours; settings: air-dried 5 hours; for pest or weed control at 0.5 %: Culex pipiens, 1 mL of 0.5% solution in acetone
Experimental: as §1, with “were” for “emerged”, “post-emergent.” for “previously.”
Repellency bioassays were performed using a static air repellency chamber, which has been described in various publications by the Pesticide Toxicology Laboratory at Iowa State University of Science and Technology, Ames, Iowa Briefly, a 9-cm×60-cm glass tube was used to monitor the distribution of mosquitoes at 15 min, 30 min, 60 min, 90 min, 120 min, and 150 min after introducing mosquitoes into the static air repellency chamber. Treated filter papers were treated with 1 mL of 0.5% solution in acetone of the terpenoid analogs created in the lab and were exposed to ambient air for 5 hours before they were introduced into the spatial chamber for testing. This is a slight modification of the method described in Example 2, so as to evaluate the residual repellent character of these compounds on a treated surface after 5 hours. One end of the spatial chamber contained a treated filter paper, whereas the other (untreated) end of the spatial chamber was not treated with compound. Controls contained filter papers treated with acetone, the solvent used to make the 0.5% solutions. Each end of the repellency chamber was secured with a 100-mm Petri dish using celluloid tape. After securing the petri dishes with corresponding treated or untreated filter papers to the spatial chamber, mosquitoes were anesthetized with carbon dioxide, and approximately 20 female mosquitoes were placed into each repellency chamber for one replicate. The opening of the spatial repellency chamber was secured with celluloid tape to prevent their escape. Chambers were oriented in opposite directions from the previous replicate to account for any directional effect. Four replicates were performed for data analysis for both the control and treatment groups.
as §2, with “below in this disclosure.” for “below.”

[4] = treated cloth patch, 1 min test, high dose 1.5 mg/cm^2
[5] = 0.25 h, 15 min after introduction, read-out: Short-term Percentage repellency 15 min
[6] = 1.5 h, 90 min, read-out: Short-term Percentage repellency 90 min
[7] = 2.5 h, 150 min, read-out: Short-term Percentage repellency 150 min
[8] = 0.25 h, 15 min, read-out: Long-term Percentage repellency 15 min
[9] = 1.5 h, 90 min, read-out: Long-term Percentage repellency 90 min
[10] = 2.5 h, 150 min, read-out: Long-term Percentage repellency 150 min

| Structure (SMILES) | Proportion to DEET ([1]; average MED relative to DEET) | Minimum Effective Dosage, Average ([1]; mean across subjects) [mg/cm^2] | Minimum Effective Dosage, Subject 1 [1, 4] [mg/cm^2] | Minimum Effective Dosage, Subject 2 [1, 4] [mg/cm^2] | Minimum Effective Dosage, Subject 3 [1, 4] [mg/cm^2] | pest or weed control at 0.5 % [2, 5] [%] | pest or weed control at 0.5 % [2, 6] [%] | pest or weed control at 0.5 % [2, 7] [%] | pest or weed control at 0.5 % [3, 8] [%] | pest or weed control at 0.5 % [3, 9] [%] | pest or weed control at 0.5 % [3, 10] [%] | Long-term repellency, in words ([3]; 0.5% solution) | Long-term percentage repellency 60 min ([3]; 0.5% solution, 60 minutes) [%] | Short-term spatial repellency, in words [2] | Short-term percentage repellency 30 min ([2]; 30 minutes) [%] | Short-term percentage repellency 120 min ([2]; 120 minutes) [%] |
| --- | --- | --- | --- | --- | --- | --- | --- | --- | --- | --- | --- | --- | --- | --- | --- | --- |
| CC(C)=CCC/C(C)=C/C(=O)OCC(C)O (centres unmarked) [2-hydroxypropyl geranate] | 2.474 | 0.047 | 0.047 | 0.047 | 0.047 | – | – | – | – | – | – | – | – | – | – | – |
| CC(=O)CCC(=O)OCCC(C)CCC=C(C)C (centres unmarked) [Compound 2183, citronellyl levulinate] | – | – | – | – | – | 35 | 45 | 55 | 35 | 45 | 55 | – | – | – | – | – |
| Cc1ccc(C(C)C)c(OC(=O)CC(C)C)c1 [Compound 1055B, thymyl isovalerate] | – | – | – | – | – | 12.5 | 65 | 77.5 | 0 | 22.5 | 27.5 | – | – | – | – | – |
| CC(C)=CCCC(C)CCOC(=O)C1(C)CCC1 (centres unmarked) [Compound 2106, citronellyl 1-methylcyclobutanecarboxylate] | – | – | – | – | – | 30 | 60 | 67.5 | 15 | 10 | 15 | – | – | – | – | – |
| CC(C)=CCC/C(C)=C\COC(=O)C1CC1 [Compound 2023B, neryl cyclopropanecarboxylate] | – | – | – | – | – | 10 | 52.5 | 60 | 10 | 52.5 | 60 | – | – | – | – | – |
| CCN(CC)C(=O)c1cccc(C)c1 [N,N-diethyl-meta-toluamide (DEET), N,N-diethyl-meta-toluamide, reference compound] | – | – | – | – | – | 20 | 50 | 56.7 | 32.5 | 32.5 | 45 | – | – | – | – | – |
| C=CC(C)(C)OC(=O)CC(C)CCC=C(C)C (centres unmarked) [Compound 2170, tert-prenyl citronellate] | – | – | – | – | – | 80 | 92.5 | 82.5 | 2.5 | 7.5 | -2.5 | – | – | – | – | – |
| CC(C)=CCC/C(C)=C/COC(=O)C1CC1 [Compound 2023A, geranyl cyclopropanecarboxylate] | – | – | – | – | – | 45 | 42.5 | 45 | 45 | 42.5 | 45 | much greater than DEET | 47.5 | – | – | – |
| CC(C)=CCCC(C)CCOC(=O)C1CC(C)C1 (centres unmarked) [Compound 3068, citronellyl 3-methylcyclobutanecarboxylate] | – | – | – | – | – | 22.5 | 32.5 | 42.5 | 22.5 | 32.5 | 42.5 | – | – | – | – | – |
| Cc1ccc(C(C)C)c(OC(=O)C(C)(C)F)c1 [Compound 1121A, thymyl 2-fluoroisobutyrate] | – | – | – | – | – | 77.5 | 97.5 | 97.5 | 22.5 | 50 | 65 | – | – | – | – | – |
| CC1CCC(C(C)C)C(OC(=O)C2CC2)C1 (centres unmarked) [Compound 1033B, menthyl cyclopropanecarboxylate] | – | – | – | – | – | 15 | 95 | 92.5 | 65 | 71.7 | 82.5 | much greater than DEET | – | very effective spatial repellent | 47.5 | 95 |
| CC(C)=CCCC(C)CCOC(=O)C(C)C (centres unmarked) [Compound 2204, citronellyl isobutyrate] | – | – | – | – | – | 25 | 80 | 90 | -5 | 7.5 | 10 | – | – | – | – | – |
| CC(C)=CCCC(C)CCO (centres unmarked) [citronellol, reference compound] | – | – | – | – | – | 32.5 | 80 | 87.5 | 30 | 25 | 25 | – | – | – | – | – |
| CC(C)=CCCC(C)CCOC(=O)C(C)(C)C (centres unmarked) [Compound 1036A, citronellyl pivalate] | – | – | – | – | – | 25 | 90 | 92.5 | 27.5 | 17.5 | 20 | – | – | – | – | – |
